Source: US20110070211A1 (priority 2009, published 2011)

Test system: DU-145 cells
Format: cell-based, Human

**Q.** For `C=C1[C@@H](C)[C@H]2[C@H](Cc3ccccc3)NC(=O)[C@]23[C@H](OC(C)=O)/C=C/[C@@](C)(O)C(=O)[C@@H](C)C/C=C/[C@H]3[C@@H]1O` [Cytochalasin-D], which “Effect on cell migration” value is on record?
**A.** Its value is “did not migrate”.

**Q.** What about the “Relative Wound Density at 24 Hours, Mean” value of the same compound?
**A.** The value was 3.3 ± 0.2.

**Q.** What about the “Relative Wound Density at 24 Hours, Percent Relative to Media” value of the same compound?
**A.** Its value is 4%.
